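At the GI50, growth is halved. The concentration for full growth arrest is given as TGI.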
How the values were obtained:
Test in all cases: DTP human tumour cell line panel, 384-well format
SW-620 colon = test system: SW-620 colon
SK-MEL-2 melanoma = test system: SK-MEL-2 melanoma
HT29 colon = test system: HT29 colon
HOP-92 NSCLC = test system: HOP-92 NSCLC
K-562 leukemia = test system: K-562 leukemia
EKVX NSCLC = test system: EKVX NSCLC
MOLT-4 leukemia = test system: MOLT-4 leukemia
PC-3 prostate = test system: PC-3 prostate
UO-31 renal = test system: UO-31 renal
MDA-MB-468 breast = test system: MDA-MB-468 breast
ACHN renal = test system: ACHN renal
KM12 colon = test system: KM12 colon
U251 glioblastoma = test system: U251 glioblastoma
MALME-3M melanoma = test system: MALME-3M melanoma
SN12C renal = test system: SN12C renal
HS 578T breast = test system: HS 578T breast
BT-549 breast = test system: BT-549 breast
CCRF-CEM leukemia = test system: CCRF-CEM leukemia
DU-145 prostate = test system: DU-145 prostate
NCI/ADR-RES ovarian = test system: NCI/ADR-RES ovarian
HCC-2998 colon = test system: HCC-2998 colon
SK-MEL-5 melanoma = test system: SK-MEL-5 melanoma
MDA-MB-435 melanoma = test system: MDA-MB-435 melanoma
OVCAR-3 ovarian = test system: OVCAR-3 ovarian
HOP-62 NSCLC = test system: HOP-62 NSCLC
A498 renal = test system: A498 renal
MDA-MB-231 breast = test system: MDA-MB-231 breast
SNB-75 CNS = test system: SNB-75 CNS
COLO 205 colon = test system: COLO 205 colon
UACC-62 melanoma = test system: UACC-62 melanoma
SF-295 CNS = test system: SF-295 CNS
IGROV1 ovarian = test system: IGROV1 ovarian
SK-OV-3 ovarian = test system: SK-OV-3 ovarian
T-47D breast = test system: T-47D breast
RPMI-8226 leukemia = test system: RPMI-8226 leukemia
OVCAR-4 ovarian = test system: OVCAR-4 ovarian
SF-268 CNS = test system: SF-268 CNS
A549 NSCLC = test system: A549 NSCLC
NCI-H522 lung = test system: NCI-H522 lung
M14 melanoma = test system: M14 melanoma
SF-539 CNS = test system: SF-539 CNS
RXF 393 renal = test system: RXF 393 renal
OVCAR-8 ovarian = test system: OVCAR-8 ovarian
HL-60(TB) leukemia = test system: HL-60(TB) leukemia
NCI-H460 NSCLC = test system: NCI-H460 NSCLC
UACC-257 melanoma = test system: UACC-257 melanoma
OVCAR-5 ovarian = test system: OVCAR-5 ovarian

Structure (SMILES): NC1(c2ccc(-c3nc4ccn5c(=O)[nH]nc5c4cc3-c3ccccc3)cc2)CCC1
- GI50 (SW-620 colon): 4690 nM
- TGI (SW-620 colon): 8900 nM
- GI50 (SK-MEL-2 melanoma): 1590 nM
- TGI (SK-MEL-2 melanoma): 2950 nM
- GI50 (HT29 colon): 1290 nM
- TGI (HT29 colon): 2690 nM
- GI50 (HOP-92 NSCLC): 1160 nM
- TGI (HOP-92 NSCLC): 2660 nM
- GI50 (K-562 leukemia): 1590 nM
- TGI (K-562 leukemia): 3030 nM
- GI50 (EKVX NSCLC): 1620 nM
- TGI (EKVX NSCLC): 5920 nM
- GI50 (MOLT-4 leukemia): 131 nM
- TGI (MOLT-4 leukemia): 632 nM
- GI50 (PC-3 prostate): 139 nM
- TGI (PC-3 prostate): 3210 nM
- GI50 (UO-31 renal): 2200 nM
- TGI (UO-31 renal): 6720 nM
- GI50 (MDA-MB-468 breast): 48.3 nM
- TGI (MDA-MB-468 breast): 514 nM
- GI50 (ACHN renal): 1290 nM
- TGI (ACHN renal): 5450 nM
- GI50 (KM12 colon): 2320 nM
- TGI (KM12 colon): 7070 nM
- GI50 (U251 glioblastoma): 1860 nM
- TGI (U251 glioblastoma): 4530 nM
- GI50 (MALME-3M melanoma): 683 nM
- TGI (MALME-3M melanoma): 2210 nM
- GI50 (SN12C renal): 4040 nM
- TGI (SN12C renal): 16300 nM
- GI50 (HS 578T breast): 704 nM
- TGI (HS 578T breast): 2170 nM
- GI50 (BT-549 breast): 875 nM
- TGI (BT-549 breast): 2520 nM
- GI50 (CCRF-CEM leukemia): 127 nM
- TGI (CCRF-CEM leukemia): 1160 nM
- GI50 (DU-145 prostate): 5780 nM
- TGI (DU-145 prostate): 17400 nM
- GI50 (NCI/ADR-RES ovarian): 3180 nM
- TGI (NCI/ADR-RES ovarian): 12100 nM
- GI50 (HCC-2998 colon): 1390 nM
- TGI (HCC-2998 colon): 2780 nM
- GI50 (SK-MEL-5 melanoma): 777 nM
- TGI (SK-MEL-5 melanoma): 1930 nM
- GI50 (MDA-MB-435 melanoma): 2360 nM
- TGI (MDA-MB-435 melanoma): 7210 nM
- GI50 (OVCAR-3 ovarian): 859 nM
- TGI (OVCAR-3 ovarian): 4780 nM
- GI50 (HOP-62 NSCLC): 2680 nM
- TGI (HOP-62 NSCLC): 7930 nM
- GI50 (A498 renal): 134 nM
- TGI (A498 renal): 1190 nM
- GI50 (MDA-MB-231 breast): 2490 nM
- TGI (MDA-MB-231 breast): 6520 nM
- GI50 (SNB-75 CNS): 239 nM
- TGI (SNB-75 CNS): 1780 nM
- GI50 (COLO 205 colon): 712 nM
- TGI (COLO 205 colon): 2650 nM
- GI50 (UACC-62 melanoma): 1450 nM
- TGI (UACC-62 melanoma): 5450 nM
- GI50 (SF-295 CNS): 1340 nM
- TGI (SF-295 CNS): 2720 nM
- GI50 (IGROV1 ovarian): 188 nM
- TGI (IGROV1 ovarian): 2390 nM
- GI50 (SK-OV-3 ovarian): 763 nM
- TGI (SK-OV-3 ovarian): 2300 nM
- GI50 (T-47D breast): 27.2 nM
- TGI (T-47D breast): 629 nM
- GI50 (RPMI-8226 leukemia): 1480 nM
- TGI (RPMI-8226 leukemia): 3240 nM
- GI50 (OVCAR-4 ovarian): 2790 nM
- TGI (OVCAR-4 ovarian): 7480 nM
- GI50 (SF-268 CNS): 2730 nM
- TGI (SF-268 CNS): 7370 nM
- GI50 (A549 NSCLC): 2050 nM
- TGI (A549 NSCLC): 9340 nM
- GI50 (NCI-H522 lung): 2390 nM
- TGI (NCI-H522 lung): 6500 nM
- GI50 (M14 melanoma): 1440 nM
- TGI (M14 melanoma): 2770 nM
- GI50 (SF-539 CNS): 815 nM
- TGI (SF-539 CNS): 2080 nM
- GI50 (RXF 393 renal): 863 nM
- TGI (RXF 393 renal): 2230 nM
- GI50 (OVCAR-8 ovarian): 1760 nM
- TGI (OVCAR-8 ovarian): 3960 nM
- GI50 (HL-60(TB) leukemia): 1920 nM
- TGI (HL-60(TB) leukemia): 3360 nM
- GI50 (NCI-H460 NSCLC): 463 nM
- TGI (NCI-H460 NSCLC): 2860 nM
- GI50 (UACC-257 melanoma): 1540 nM
- TGI (UACC-257 melanoma): 2890 nM
- GI50 (OVCAR-5 ovarian): 2130 nM
- TGI (OVCAR-5 ovarian): 7160 nM

Reference: PubChem BioAssay (NCI)
